Results from PMC9558053, “Development of a novel high-throughput screen for the identification of new inhibitors of protein S-acylation” (The Journal of Biological Chemistry, 2022).

Molecular target: T1, human zDHHC15 (Homo sapiens, UniProt Q96MV8)
T1 construct: expressed in transfected cells; host or cells: HEK293T
T1 sequence (Q96MV8 1-337): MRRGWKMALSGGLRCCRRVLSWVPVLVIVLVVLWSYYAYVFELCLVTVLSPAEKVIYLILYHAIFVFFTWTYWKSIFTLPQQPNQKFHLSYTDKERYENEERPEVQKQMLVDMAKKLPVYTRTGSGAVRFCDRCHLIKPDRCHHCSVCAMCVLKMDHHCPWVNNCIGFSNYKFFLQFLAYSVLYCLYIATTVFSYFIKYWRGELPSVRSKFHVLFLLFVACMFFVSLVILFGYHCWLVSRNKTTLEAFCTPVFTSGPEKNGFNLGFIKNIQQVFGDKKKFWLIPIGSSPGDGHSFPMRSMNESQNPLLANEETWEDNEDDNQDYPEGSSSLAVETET
Assay: PSD95-mCHERRY S-acylation in HEK293T cells co-expressing zDHHC15
Type: cell-based
Settings: 25 μM
From the text: PSD95 (postsynaptic density protein 95) is a major S-acylated protein that has a critical role in the maturation of excitatory neurons and in synaptic plasticity ([46], [47]). PSD95 can be S-acylated by zDHHC2, zDHHC3, zDHHC7, and zDHHC15 ([6]). […] We therefore tested the effects of TTZ-1 and TTZ-2 on the S-acylation of PSD95 mediated by zDHHC2, zDHHC3, zDHHC7, and zDHHC15. […] In contrast, zDHHC3 and zDHHC7 activities toward PSD95 were unaffected by TTZ-1 and TTZ-2, mirroring the data obtained with GFP-SNAP25 as a substrate.
Figure 9 Activity of TTZ-1 and TTZ-2 against PSD95 S-acylation mediated by human zDHHC2, zDHHC3, zDHHC7, and zDHHC15 expressed in mammalian cells. HEK293T cells were transfected with a plasmid encoding PSD95-mCHERRY together with either a control plasmid pEF-BOS-HA (pEF) or a plasmid encoding either HA-tagged human zDHHC2 (zD2), zDHHC3 (zD3), zDHHC7 (zD7), or zDHHC15 (zD15) for 24 h. Cells were then preincubated for 4 h with TTZ-1 or TTZ-2 (25 μM final) or DMSO control before metabolic labeling with 100 μM C16:0-azide for 4 h. Cells were lysed, and proteins having incorporated C16:0-azide were labeled by click chemistry with an alkyne-IR800 dye. […] The data were quantified, and the graphs below each set of membranes show mean ± SEM of normalized S-acylation of PSD95-mCHERRY (click signal/RFP signal). […]

Compound | PSD95-mCHERRY S-acylation by zDHHC15
O=C(Nc1cccc2c1OC(c1nnn[nH]1)CN2)c1ccc(OCCCCc2ccccc2)cc1 (centres unmarked) [TTZ-2, N-(2-(1H-Tetrazol-5-yl)-3,4-dihydro-2H-benzo[b][1,4]oxazin-8-yl)-4-(4-phenylbutoxy)benzamide] | significantly inhibited
CCCCCCCOc1ccc(C(=O)Nc2cccc3c2OC(c2nnn[nH]2)CN3)cc1 (centres unmarked) [TTZ-1, N-(2-(1H-Tetrazol-5-yl)-3,4-dihydro-2H-benzo[b][1,4]oxazin-8-yl)-4-(heptyloxy)benzamide] | significantly inhibited
